According to PubChem BioAssay (NCI):
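Following 48 hours of exposure in 96-well plates, responses at five concentrations were used to interpolate endpoints linearly. GI50 marks 50% less growth. Definition used: TGI = concentration required for complete inhibition of growth.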

Legend:
Experiment in all cases: NCI anticancer screen, dose series, 48 h
[1] = tested on: KM12 colon
[2] = tested on: PC-3 prostate
[3] = tested on: A549 NSCLC
[4] = tested on: TK-10 renal
[5] = tested on: SNB-75 CNS
[6] = tested on: UO-31 renal
[7] = tested on: SW-620 colon
[8] = tested on: COLO 205 colon
[9] = tested on: NCI/ADR-RES ovarian
[10] = tested on: SR leukemia

| SMILES | TGI [1] | TGI [2] | TGI [3] | TGI [4] | TGI [5] | TGI [6] | TGI [7] | TGI [8] | TGI [9] | TGI [10] | GI50 [1] | GI50 [2] | GI50 [3] | GI50 [4] | GI50 [5] | GI50 [10] | GI50 [6] | GI50 [7] | GI50 [8] | GI50 [9] |
| --- | --- | --- | --- | --- | --- | --- | --- | --- | --- | --- | --- | --- | --- | --- | --- | --- | --- | --- | --- | --- |
| c1cnc(N2CCN(Cc3c[nH]c4ccccc34)CC2)nc1 | 76.6 µM | > 100 µM | > 100 µM | > 100 µM | > 100 µM | > 100 µM | > 100 µM | 67.6 µM | > 100 µM | – | – | – | – | – | – | – | – | – | – | – |
| COC(OC)[C@@H]1OC[C@@H](O)[C@@H]1n1cnc2c(N)ncnc21 | > 100 µM | > 100 µM | – | > 100 µM | > 100 µM | > 100 µM | > 100 µM | > 100 µM | > 100 µM | > 100 µM | – | – | – | – | – | – | – | – | – | – |
| Fc1cccc(F)c1C1SCc2nc3ccc(Cl)cc3n21 (stereo not drawn) | > 100 µM | > 100 µM | > 100 µM | > 100 µM | > 100 µM | > 100 µM | > 100 µM | > 100 µM | > 100 µM | > 100 µM | – | – | – | – | – | – | – | – | – | – |
| O=C1C(CN2CCOCC2)CCCC1CN1CCOCC1 (stereo not drawn) | 17.8 µM | 28.9 µM | 55.4 µM | 8.72 µM | 29.9 µM | 18.9 µM | 0.911 µM | 6.21 µM | – | > 100 µM | – | – | – | – | – | – | – | – | – | – |
| CC1(C)CC(=O)C2=C(C1)OC1=C(CC(C)(C)CC1=O)C2c1ccccc1[N+](=O)[O-] (stereo not drawn) | > 100 µM | > 100 µM | > 100 µM | > 100 µM | > 100 µM | 3.69 µM | > 100 µM | > 100 µM | > 100 µM | > 100 µM | – | – | – | – | – | – | – | – | – | – |
| O=C(CCc1ccccc1)On1c(-c2ccccc2)nc2ccccc2c1=S | 24 µM | 56.3 µM | > 100 µM | > 100 µM | > 100 µM | 39.3 µM | > 100 µM | > 100 µM | 79.1 µM | – | – | – | – | – | – | – | – | – | – | – |
| Clc1ccc(OCc2nn3c(CCc4nnc5sc(COc6ccc(Cl)cc6)nn45)nnc3s2)cc1 | 60.2 µM | 53.1 µM | – | 80.7 µM | – | 3.03 µM | > 100 µM | – | 37.5 µM | – | – | – | – | – | – | – | – | – | – | – |
| Oc1[nH]c2ccccc2c1/C=c1/cc2c(c(-c3ccc(F)cc3)n1)=Nc1ccccc1-2 | 1.87 µM | 1.88 µM | 2.28 µM | 3.71 µM | 1.27 µM | 2.21 µM | 2.43 µM | 1.27 µM | 1.25 µM | 2.49 µM | 363 nM | 317 nM | 815 nM | 1440 nM | 227 nM | 306 nM | 353 nM | 438 nM | 316 nM | 267 nM |
| COc1cc(-c2ccccc2N)c2cccnc2c1OC | 24.3 µM | 22 µM | 16.1 µM | 23.7 µM | – | 15 µM | 17.4 µM | 22.1 µM | 35.9 µM | 7.25 µM | – | – | – | – | – | – | – | – | – | – |
| CCOC(=O)C1=C(C)N(c2ccc(OC)cc2)C2(O)C=CC(=O)C3=C(O)c4ccccc4C(=O)C312 (stereo not drawn) | 29.2 µM | 24.4 µM | 36.2 µM | 27.4 µM | – | 31 µM | 29.8 µM | 24 µM | 20.1 µM | – | – | – | – | – | – | – | – | – | – | – |
| C[Si](C)(c1ccccc1)[C@H]1CCCC=C1CCNC1c2ccccc2CCc2ccccc21 | > 100 µM | > 100 µM | > 100 µM | > 100 µM | > 100 µM | > 100 µM | > 100 µM | > 100 µM | > 100 µM | > 100 µM | – | – | – | – | – | – | – | – | – | – |
| O=C(NNc1nc(-c2ccccc2)cs1)C(F)(F)F | > 100 µM | > 100 µM | > 100 µM | – | 91 µM | 31.6 µM | > 100 µM | > 100 µM | > 100 µM | > 100 µM | – | – | – | – | – | – | – | – | – | – |
| O=C1c2cn[nH]c2C(c2ccccc2)N1c1ccccc1 (stereo not drawn) | > 10 µM | > 10 µM | > 10 µM | > 10 µM | > 10 µM | > 10 µM | > 10 µM | > 10 µM | > 10 µM | > 10 µM | – | – | – | – | – | – | – | – | – | – |
| O=c1cnn(CCOCP(=O)(O)O)c(=O)[nH]1 | > 100 µM | > 100 µM | > 100 µM | > 100 µM | > 100 µM | > 100 µM | > 100 µM | > 100 µM | > 100 µM | – | – | – | – | – | – | – | – | – | – | – |
| C[Si](C)(C)C1=C([Si](C)(C)C)C(Cl)(Cl)C1=O | 18.9 µM | 12.9 µM | 49.7 µM | 5.27 µM | 24.9 µM | 8.45 µM | 13.2 µM | 4.87 µM | 27.1 µM | 5.46 µM | – | – | – | – | – | – | – | – | – | – |
| CCCC(CCN)(CCN)[N+](=O)[O-] | > 100 µM | > 100 µM | > 100 µM | > 100 µM | > 100 µM | > 100 µM | > 100 µM | > 100 µM | > 100 µM | > 100 µM | – | – | – | – | – | – | – | – | – | – |
| COc1ccc(C(C2=C(O)COC2=O)c2cc3c(cc2O)OCO3)cc1OC (stereo not drawn) | > 100 µM | > 100 µM | > 100 µM | > 100 µM | > 100 µM | > 100 µM | > 100 µM | > 100 µM | > 100 µM | > 100 µM | – | – | – | – | – | – | – | – | – | – |
| CCc1nc2ccc(NCCN(C)C)c3c(=O)c4ccccc4n1c23 | 6.42 µM | 6.44 µM | 4.76 µM | 12.2 µM | 11.9 µM | 10 µM | 4.99 µM | 3.44 µM | 3.38 µM | 7.66 µM | – | – | – | – | – | – | – | – | – | – |
| CN(C)/N=C1\CC(c2ccccc2)C(C#N)(C#N)C1(C#N)C#N (stereo not drawn) | > 100 µM | 35.6 µM | > 100 µM | 32.4 µM | 33.9 µM | 34.4 µM | 36.2 µM | 22.1 µM | 72.1 µM | > 100 µM | – | – | – | – | – | – | – | – | – | – |
| CC(C)(C)N(Cc1ccc2c(c1)OCO2)C(=O)/C=C\Sc1ccccc1 | > 100 µM | > 100 µM | > 100 µM | > 100 µM | – | > 100 µM | > 100 µM | > 100 µM | > 100 µM | > 100 µM | – | – | – | – | – | – | – | – | – | – |
| Cc1cc(=O)[nH]c(NN2C(Cl)C(=O)C2c2cccc(Cl)c2)n1 (stereo not drawn) | 67 µM | – | > 100 µM | > 100 µM | 62.8 µM | 87.6 µM | > 100 µM | – | – | 44.3 µM | – | – | – | – | – | – | – | – | – | – |
